Columns and labels:
[1] = Acute toxicity, LD50 by the Weil method, intraperitoneal administration in the mouse; settings: in vivo, ip, N = 4 K = 4, confidential limits given
Excerpt: LD50 of the compounds of formula (I), evaluated by the Weil method ("Tables for convenient calculation of median effective dose (LD50 or ED50) and instructions in their use", Biometrics, 249-253, 1952), by intraperitoneal administration in the mouse.
LD50 and confidential limits, mg/kg i.p., of the
compounds of formula I. Weil method, N = 4 K = 4

bronchial secretion = assay: Expectorating activity: amount of bronchial secretion in rabbits (method of Perry et al.); assay type: in vivo, rabbit; settings: male rabbits, 20 to 40 mg
Procedure: The experimentation was carried out on male rabbits, weighting 2-3 kg, narcotized with ethyl urethane, according to the method described by Perry et al. (J. Pharm. Exp. Ther. 73, 65 (1941)). Each compound of formula (I) was administered to 5 rabbits in doses ranging from 20 to 40 mg, 1 hour after the incannulation. The control group (8 rabbits) was given only water. The amount of secretion was determined 1, 2 and 4 hours after the administration.
Effects of compounds of formula (I) on the bronchial secretion
Percentage variations (± standard error) of the
bronchial secretion, in comparison with the
basic values, in the following times after the […]

bronchial tree = assay: Bronchosecretogogic activity: sodium fluoresceine method in the rat (Mawatari); assay type: in vivo; settings: 500 mg/kg i.p.
Procedure: The bronchosecretogogic activity of compound (2), i.e. 2-methoxyphenyl N-[2-(2-thenoylthio)propionyl]aminoacetate, was tested according to the method of the sodium fluoresceine in the rat, as described by Mawatari (Experimental Studies on the expectorant action of several drugs, Kagoshima Daigaku Igaku Zasshi 27, 561 (1976)), in comparison with S-carboxymethyl-cysteine (CMC) and N-(2-mercaptopropionyl)glycine (MPG).
Removal of the sodium fluoresceine from the bronchial
tree (percentage increase versus the controls).

[2] = In vivo pharmacokinetics in the rat
Excerpt: After administration of equimolecular doses of N-[2-(2-thenoylthio)propionyl]glycine and of the corresponding 2-methoxyphenyl ester (compound (2)), higher lung concentrations of N-(2-mercaptopropionyl)glycine and thiophene-2-carboxylic acid are found in the case of compound (2) administration.

esterase = assay: In vitro enzymatic hydrolysis of compound (2); assay type: in vitro ADME
Procedure: "In vitro" and "in vivo" tests were carried out.

cough = assay: Antitussive activity: cough induced by citric acid aerosol in Guinea pigs; assay type: in vivo
Procedure: This activity was tested on Guinea pigs, in which cough was induced by citric acid aerosol, in comparison with codeine. Compound (2) was administered per os and intraperiotoneally.
Antitussive activity. Cough induced in Guinea pigs

[3] = equimolecular doses, versus N-[2-(2-thenoylthio)propionyl]glycine

SMILES	LD50 [1]	Percentage variations (± standard error) of the bronchial secretion, in comparison with the basic values (bronchial secretion; 1h after the administration)	Percentage variations (± standard error) of the bronchial secretion, in comparison with the basic values (bronchial secretion; 2h after the administration)	Percentage variations (± standard error) of the bronchial secretion, in comparison with the basic values (bronchial secretion; 4h after the administration)	other results
COc1ccccc1OC(=O)CNC(C)=O [(1), 2-methoxyphenyl ester of N-acetlyglycine]	1010 mg/kg	+1,3 ± 0,02%	-1,4 ± 0,03%	+2,3 ± 0,07%	
COc1ccccc1OC(=O)C(C)NC(C)=O (stereo not drawn) [(3), 2-methoxyphenyl ester of N-acetylalanine]	1150 mg/kg	+0,8 ± 0,04%	+1,2 ± 0,04%	+2,7 ± 0,08%	
COc1ccccc1OC(=O)C(C)NC(=O)C(C)SC(=O)c1cccs1 (stereo not drawn) [(4), 2-methoxyphenyl ester of N-[2-(2-thenoylthio)propionyl]alanine]	960 mg/kg	+1,5 ± 0,05%	+1,9 ± 0,08%	+2,5 ± 0,09%	
COc1ccccc1OC(=O)C(CS)NC(C)=O (stereo not drawn) [(5), 2-methoxyphenyl ester of N-acetylcysteine]	1270 mg/kg	+0,9 ± 0,05%	+2,1 ± 0,01%	+3,8 ± 0,09%	
COc1ccccc1OC(=O)C(CSC(C)=O)NC(C)=O (stereo not drawn) [(6), 2-methoxyphenyl ester of N,S-diacetylcysteine]	1580 mg/kg	+0,4 ± 0,05%	+2,1 ± 0,05%	+1,9 ± 0,04%	
COc1ccccc1OC(=O)C(CSCC(=O)O)NC(C)=O (stereo not drawn) [(7), 2-methoxyphenyl ester of N-acetyl-S-carboxymethylcysteine]	1250 mg/kg	+0,5 ± 0,03%	+0,7 ± 0,07%	+1,9 ± 0,09%	
COc1ccccc1OC(=O)C(CS)NC(=O)C(C)SC(=O)c1cccs1 (stereo not drawn) [(8), 2-methoxyphenyl ester of N-[2-(2-thenoylthio)propionyl]cysteine]	980 mg/kg	+1,8 ± 0,04%	+1,7 ± 0,09%	+2,7 ± 0,05%	
COc1ccccc1OC(=O)C(CSC(C)=O)NC(=O)C(C)SC(=O)c1cccs1 (stereo not drawn) [(9), 2-methoxyphenyl ester of N-[2-(2-thenoylthio)propionyl]-S-acetylcysteine]	1230 mg/kg	+1,9 ± 0,03%	+1,5 ± 0,04%	+2,4 ± 0,04%	
COc1ccccc1OC(=O)C(CSCC(=O)O)NC(=O)C(C)SC(=O)c1cccs1 (stereo not drawn) [(10), 2-methoxyphenyl ester of N-[2-(2-thenoylthio)propionyl]-S-carboxymehtylcysteine]	1340 mg/kg	+0,8 ± 0,02%	+1,3 ± 0,04%	+2,1 ± 0,03%	
N[C@@H](CSCC(=O)O)C(=O)O [CMC, S-carboxymethyl-cysteine, reference compound]					Removal of the sodium fluoresceine from the bronchial tree (percentage increase versus the controls) (bronchial tree): 33.4%
COc1ccccc1OC(=O)CNC(=O)C(C)SC(=O)c1cccs1 (stereo not drawn) [Compound (2), 2-methoxyphenyl N-[2-(2-thenoylthio)propionyl]aminoacetate]	1240 mg/kg	+0,3 ± 0,01%	+0,7 ± 0,03%	+1,4 ± 0,05%	pulmonary tropism [2]: high pulmonary tropism; lung concentrations of N-(2-mercaptopropionyl)glycine [2, 3]: higher; lung concentrations of thiophene-2-carboxylic acid [2, 3]: higher; absorption ([2]; oral administration): mostly absorbed as such after oral administration; enzymatic hydrolysis products (esterase): enzymetically hydrolized giving N-(2-mercaptopropionyl)glycine, thiophene-2-carboxylic acid and guaiacol; tissue with highest esterase activity (esterase): highest esterase activity is showed by the lung; % inhibition of the cough (cough; 100 mg/kg i.p.): 95.8%; % inhibition of the cough (cough; 500 mg/kg per os): 82.3%; Removal of the sodium fluoresceine from the bronchial tree (percentage increase versus the controls) (bronchial tree): 123.5%; bronchosecretogogic activity, comparison with CMC and MPG (bronchial tree): much higher than CMC and MPG
CC(S)C(=O)NCC(=O)O (stereo not drawn) [MPG, N-(2-mercaptopropionyl)glycine, reference compound]					Removal of the sodium fluoresceine from the bronchial tree (percentage increase versus the controls) (bronchial tree): 21.9%
COc1ccc2c3c1O[C@H]1[C@@H](O)C=C[C@H]4[C@@H](C2)N(C)CC[C@@]341 [codeine, reference compound]					% inhibition of the cough (cough; 12.5 mg/kg i.p.): 90.2%; % inhibition of the cough (cough; 25 mg/kg per os): 75.6%
